Results published in patent US6416737B1, “Increasing bone strength with selected bisphosphonates” (Board of Trustees of the University of Arkansas, priority 1998, dated 2002).
Where two headings read alike, the source gives them in different places.

What was measured:
ERK1/2 = ERK1/2 phosphorylation in MLO-Y4 cells by Western blot; type: cell-based, murine; details: 10^−7 M
Method: Monolayers were washed with cold 20 mM Tris-HCl (pH 7.5), 150 mM NaCl, 1 mM sodium orthovanadate and lysed in the lysis buffer mentioned above. Insoluble material was pelleted in a microcentrifuge at 14,000×rpm for 10 mn. […] Proteins (10 μg) were separated on 7.5% SDS-polyacrylamide gels and electrotransferred to a polyvinylidene difluoride membrane. Immunoblotting was performed using a mouse monoclonal antibody recognizing tyrosine phosphorylated ERK1/2, or a rabbit polyclonal antibody recognizing total ERK1/2, followed by incubation with either an antimouse or an antirabbit antibody conjugated with horseradish peroxidase. Blots were developed using Chemiluminescence according to the manufacturer's recommendations. Quantitation of the intensity of the bands in the autoradiograms was performed using a scanner (Microtek Lab., Redondo Beach, Calif.).

[1] = system: osteoblastic cells derived from murine calvaria; assay: Apoptosis of osteoblastic cells derived from murine calvaria by trypan blue uptake; type: cell-based; details: 10^−7 M, 1 h pretreatment; 6 h
[2] = system: osteocyte and osteoblast apoptosis in murine vertebral cancellous bone; assay: Murine model of glucocorticoid excess: TUNEL in vertebral bone sections and spinal BMD by DEXA; type: in vivo, Male Swiss Webster mice; details: alendronate beginning 3 days before prednisolone pellets
Text: To adjust for the difference in the metabolic rate in mice compared to that in humans, the daily glucocorticoid dose was divided by the metabolic weight, i.e. the weight in kg to the 3/4 power (Borchard, et al., 1992. Drug dosage in laboratory animals: a handbook. CRC Press, Inc., Boca Raton, Fla. 514 pp.; Kleiber, M. 1961. The fire of life: an introduction to animal energetics. New York). […] One control group received saline injections with placebo pellet implantation while another group received saline injections plus prednisolone pellets. Dual-energy X-ray absorptiometry (DEXA) was used to determine spinal bone mineral density (spinal BMD) at the end of the 56-day experiment, as previously described (Weinstein et al., 1998. J. Clin. Invest. 102:274-282).
Sections of vertebral bone (L1 to L5) were mounted on silane-coated glass slides (Scientific Device Lab, Inc., Des Plains, Ill.), deplasticized and incubated in 10 mM citrate buffer, pH 7.6, in a microwave oven at 98° C. for 5 minutes (Jilka, et al., 1998. J. Bone Miner. Res. 13:793-802). Slides were then incubated with 0.5% pepsin for 30 minutes at 37° C. Apoptotic cells were detected by the TUNEL reaction as described above using 0.15% CuSO4 for color enhancement of the diaminobenzidine in sections counterstained with 1% methyl green. The TUNEL reaction is noted within cell nuclei and the cells whose nuclei were clearly brown from the streptavidin-horse radish peroxidase conjugate instead of blue-green from the methyl green were interpreted as positive. Plastic-embledded sections of weaned rat mammary tissue were used as a positive control. Negative controls were made by omitting the transferase from the TUNEL reaction. Morphological changes characteristic of apoptosis were carefully examined to minimize ambiguity regarding the interpretation of results. […] Osteocytes were identified inside lacunae in mineralized bone (FIG. 11A). Osteoblasts were identified as cuboidal cells lining the osteoid-covered trabecular perimeter (FIG. 11B).

osteocytic MLO-Y4 cells = assay: TUNEL reaction in MLO-Y4 cells; type: cell-based, murine; details: 10^−7 M alendronate 1 h and/or 10^−6 M dexamethasone 6 h
Method: (§1) MLO-Y4 osteocytic cells and calvaria osteoblastic cells were treated for 1 hour in the absence or presence of different BPs or sCT. Subsequently, dexamethasone, etoposide or TNF-α were added to obtain final concentrations of 10^−6 M, […], or 1 nM, respectively, and cells were incubated for additional 6 h. The effect of PD98059 (50 μM) or UO126 (1 μM) was evaluated by pretreating the cells with the inhibitors for 30 min before adding the BPs or sCT. In the experiment using the membrane permeable caspase inhibitor DEVD, cells were cultured for 1 hour with 50 nM DEVD-CHO and subsequently the pro-apoptotic agents were added to reach the final concentrations indicated above. […] At least 500 cells from fields selected by systematic random sampling were examined for each experimental condition. […] The TUNEL reaction was performed according to the manufacturer's instructions, using 0.15% CuSO4 for color enhancement. Negative controls were made by omitting the transferase from the reaction. Cells presenting brown nuclear staining were considered positive. More than 500 cells per condition were analyzed. Apoptosis of parental MLO-Y4 or calvaria cells was quantified by trypan blue staining (Jilka, et al., 1998. J. Bone Miner. Res. 13:793-802). Nonadherent cells were combined with adherent cells released from the culture dish using trypsin-EDTA, resuspended in medium containing serum, and collected by centrifugation. […] At least 100 cells per condition were counted.

MLO-Y4 osteocytic cells = details: for prevention of apoptosis induced by etoposide or TNF-α: 10^−7 M, 6 h; for prevention of apoptosis induced by etoposide or TNF-α / inhibition of glucocorticoid-induced apoptosis: 1 h pretreatment; for cell viability in the absence of pro-apoptotic stimuli: 10^−10 to 10^−3 M; for inhibition of glucocorticoid-induced apoptosis: then dexamethasone 10^−6 M for 6 h
Method: The murine long bone-derived osteocytic cell line MLO-Y4 was provided by Dr. Lynda Bonewald (University of Texas Health Center at San Antonio, Tex.). Cells were cultured in phenol red-free αMEM supplemented with 5% FBS, 5% bovine calf serum, 100 U/ml penicillin and 100 μg/ml streptomycin. Cells were plated at 1-2×10^4 cells/cm^2 on collagen type I coated plates, as described previously (Kato, et al., 1997. J. Bone Miner. Res. 12:2014-2023). Murine calvaria cells were obtained from neonatal (3- to 6-day old) C57BL/6J mice by controlled digestion with collagenase, as previously described (Bellido, et al., 1997. Endocrinology 138:3666-3676). After isolation, cells were cultured in 10% FBS at 1-2×10^4 cells/cm^2 until 90-95% confluence. Subsequently, cells were harvested and frozen for later use. UMR-106-06 cells were cultured in phenol red-free MEM supplemented with 10% FBS, 1% non-essential aminoacids, 100 U/ml penicillin, and 100 μg/ml streptomycin (Sakagami, et al., Manolagas. 1993. J. Bone Miner. Res. 8:811-816).
Nonadherent cells were combined with adherent cells released from the culture dish using trypsin-EDTA, resuspended in medium containing serum, and collected by centrifugation. […] At least 100 cells per condition were counted.
as §1
MLO-Y4 cells were incubated for 1 h in vehicle or 50 nM DEVD-CHO. Subsequently, etoposide, TNF-α, or dexamethasone (Dex) were added at final concentrations of 50 μg/ml, 1 nM, or 10^−6 M, respectively, and cells were incubated for additional 6 h. Dead cells were enumerated by trypan blue uptake.
The percentage of dead cells was determined by trypan blue uptake, as in Methods and Materials. Bars represent the mean ±S.D. of three independent measurements.
Subsequently, etoposide, TNF-α, or dexarnethasone were added to reach final concentrations of 50 μg/ml, 1 nM, or 10^−6 M, respectively, and cells were cultured for 6 h, as in FIG. 1. The percentage of dead cells was determined by trypan blue uptake. Bars represent the mean ±S.D. of three independent measurements. Data were analyzed by two-way ANOVA.

[3] = system: MLO-Y4 cells stably transduced with GFP; assay: Apoptosis by nuclear morphology of MLO-Y4 cells transduced with nuclear GFP; type: cell-based, murine; details: absence of dexamethasone; 10^−7 M
Method: Supernatants containing retroviral particles were collected 24-48 h after transfection, and used immediately to infect cell cultures. […] Subsequently, cells were exposed to the supernatants containing the viral particles once more before being trypsinized and plated at low density.
Cells presenting brown nuclear staining were considered positive. More than 500 cells per condition were analyzed. […] At least 100 cells per condition were counted.

osteoclast = details: cited from earlier work
[4] = cited from earlier work
[5] = rats, intravenously; cited from earlier work
osteoblast apoptosis = details: intermittent PTH administration in mice; decreased from 1.7-2.2%; cited from earlier work

Method for caspase-3: Caspase-3 activity was measured by determining the degradation of the fluorometric substrate DEVD, that contains acid sequence of the caspase-3 cleavage site in poly(ADP-ribose)polymerase (PARP) (Schlegel, et al., 1996. J. Biol. Chem. 271:1841-1844) conjugated with 7-amino-4-trifluoromethyl coumarin (DEVD-AFC). Cells were lysed in 20 mM Tris-HCl (H 7.5), 150 mM NaCl, 1 mM EDTA, 10 mM NaF, 1 mM sodium orthovanadate, 5 μg/ml leupeptin, 0.14 U/ml aprotinin, 1 mM phenylmethylsulfonylfluoride, and 1% Triton X-100. Protein concentration was measured using a Bio-Rad detergent compatible kit (Hercules, Calif.). Lysates (100 μg protein) were incubated with 50 μM DEVD-AFC in 50 mM HEPES, pH 7.4, 100 mM NaCl, 0.1% CHAPS, 10 mM DTT, 1 mM EDTA, 10% glycerol, in the absence or presence of the irreversible inhibitor DEVD-CHO for 60 min. The released fluorescent AFC was measured in a microplate fluorescence reader FL500 (Bio Tek Instruments, Winooski, Vt.) with excitation/emission wavelengths of 340/542 nm.
Caspase-3 activity was determined by measuring the degradation of the fluorometric substrate DEVD-AFC in the absence or presence of the irreversible inhibitor DEVD-CHO, as detailed in Example 5.

NCCCC(O)(P(=O)(O)O)P(=O)(O)O [alendronate, 4-amino-1-hydroxybutylidene-1,1-bisphosphonate]
dexamethasone-induced increase in caspase-3 activity (caspase-3; 10^−7 M alendronate 1 h, then 10^−6 M dexamethasone 16 h): inhibited the dexamethasone-induced increase in caspase-3 activity | caspase-3 activity, TUNEL positive cells and number of living cells (caspase-3; alendronate alone, absence of dexamethasone): did not affect any of these parameters | earliest time at which increased ERK phosphorylation was observed (ERK1/2): 0.5 min | phosphorylation of ERK 1 and 2 (ERK1/2): rapid and transient increase | inhibition of apoptosis of osteoblastic cells induced by dexamethasone, TNF-α and etoposide [1]: inhibited apoptosis | bone loss induced by the glucocorticoid [2]: prevented the bone loss | increase in bone cell apoptosis induced by the glucocorticoid [2]: abolished the increase in bone cell apoptosis | % of TUNEL positive cells (osteocytic MLO-Y4 cells): 6.16% | Number of TUNEL positive cells (osteocytic MLO-Y4 cells): 35 | number of TUNEL negative cells (osteocytic MLO-Y4 cells): 533 | number of living MLO-Y4 cells (MLO-Y4 osteocytic cells; 10^−6 M dexamethasone 24 h, 10^−7 M alendronate 1 h pretreatment): abolished this effect | prevention of apoptosis induced by etoposide or TNF-α (MLO-Y4 osteocytic cells): prevented apoptosis | cell viability in the absence of pro-apoptotic stimuli (MLO-Y4 osteocytic cells): did not affect cell viability | inhibition of glucocorticoid-induced apoptosis (MLO-Y4 osteocytic cells): Comparable responses

CN(C)CCC(N)(P(=O)(O)O)P(=O)(O)O [IG-9402, 1-amino-3-(N,N-dimethylamino)-propyliden-1,1-bisphosphonic acid]
earliest time at which increased ERK phosphorylation was observed (ERK1/2): 0.5 min | phosphorylation of ERK 1 and 2 (ERK1/2): rapid and transient increase | inhibition of apoptosis of osteoblastic cells induced by dexamethasone, TNF-α and etoposide [1]: inhibited apoptosis | proportion of cells exhibiting chromatin condensation and/or nuclear fragmentation versus untreated [3]: no significant differences | prevention of apoptosis induced by etoposide or TNF-α (MLO-Y4 osteocytic cells): prevented apoptosis | cell viability in the absence of pro-apoptotic stimuli (MLO-Y4 osteocytic cells): did not affect cell viability | inhibitory effect on glucocorticoid-induced apoptosis at high concentrations (MLO-Y4 osteocytic cells; concentrations higher than 10^−6 M): persisted at high concentrations | antiresorptive activity / effect on osteoclast (osteoclast): lacks anti-resorptive activity | potency ratio to affect the osteoclast, relative to pamidronate (osteoclast): ⅙ | antiresorptive activity / effect on osteoclast (osteoclast; listed as IG9204): do not block osteoclast activity at all | antiresorptive activity / effect on osteoclast (osteoclast; listed as IG9402): devoid of any antiresorptive activity

[F-].[Na+] [sodium fluoride]
increase in vertebral bone mass ([4]; for at least four years): 10 % a year

CC(O)(P(=O)(O)O)P(=O)(O)O [etidronate]
phosphorylation of ERK 1 and 2 (ERK1/2): increase in the phosphorylated fraction of ERKs | reduction of resorption depth in human iliac trabecular bone ([4]; after one year of treatment): ~30% | inhibition of glucocorticoid-induced apoptosis (MLO-Y4 osteocytic cells): Comparable responses

CC(=O)N[C@@H](CS)C(=O)O [N-acetylcysteine, acetarnido-mercaptopropionic acid]
LD50 [5]: 1140 mg/kg

B1: PTH: parathyroid hormone, intermittent administration (protein, UniProt P01270 32-115, looked up)
Parathyroid hormone: SVSEIQLMHNLGKHLNSMERVEWLRKKLQDVHNFVALGAPLAPRDAGSQRPRKKEDNVLVESHEKSLGEADKADVNVLTKAKSQ
modifications: Parathyroid hormone
notes: parathyroid hormone, intermittent administration
prevalence of osteoblast apoptosis (osteoblast apoptosis): 0.1-0.4%
